{
  "source": "patent US12697318B2",
  "about": "“Anti-inflammatory agent containing rare fatty acid” (Noster Inc., priority 2014, dated 2026)",
  "data": [
    {"test_system": "mouse-derived macrophage-like cell line RAW264.7", "assay": "Evaluation of NO production amount by Griess method", "type": "cell-based", "settings": "general statement of effect; based on suppression of NO production by M1 macrophage", "method": "The mouse-derived macrophage-like cell line RAW264.7 was seeded in a 48 well plate 1×10^5 cells per well. After culture for 5 hr, Escherichia coli-derived lipopolysaccharide (LPS) was added to 100 ng/mL over 24 hr to activate RAW264.7 cells. Simultaneously with LPS, various compounds (No. 1-No. 17, LA, ALA) were added at 10 μM, and the concentration of […] (NO2^−), which is an oxide of nitric oxide (NO) produced by macrophage activation, in the culture medium was measured. The amount of NO2 in the culture medium was quantified by the Griess method and in reference to Shan Lin et al., Molecular Nutrition and Food Research 57 (2013) p 1135-1144, “Auraptene suppresses inflammatory responses in activated RAW264 macrophages by inhibiting p38 mitogen-activated protein kinase activation”, the section of Material and methods Measurements of TNF-α, MCP-1, and NO concentrations. The quantification was actually performed as follows. RAW264.7 culture medium treated with LPS and various compounds for 24 hr was recovered. 0.2% N-(1-naphthyl) ethylenediamine and 2% Sulfanilamide/10% H3PO4 were blended at 1:1 immediately before reaction to give a Griess reagent, RAW264.7 culture medium and the Griess reagent were mixed at 1:1 and reacted at room temperature for 10 min. After completion of the reaction, absorbance at 550 nm was measured. NaNO2 was used as the NO2^− standard product, and the NO2^− concentration in the culture medium was calculated. The concentration of the sample was adjusted with ethanol. Ethanol was used as a negative control, and BAY11-7082 (5 μM), which is a IκBα phosphorylation inhibitor, was used as a positive control.", "values": [
      {"smiles": "CCCCC/C=C\\CC(O)CCCCCCCCC(=O)O", "note": "(stereo not drawn) [No. 4, 10-hydroxy-cis-12-octadecenoic acid]", "anti-inflammatory action": "have an anti-inflammatory action"},
      {"smiles": "CCCCC/C=C\\CC(=O)CCCCCCCCC(=O)O", "note": "[No. 6, 10-oxo-cis-12-octadecenoic acid]", "anti-inflammatory action": "have an anti-inflammatory action"},
      {"smiles": "CCCCCC(O)CC/C=C\\CCCCCCCC(=O)O", "note": "(stereo not drawn) [No. 14, 13-hydroxy-cis-9-octadecenoic acid]", "anti-inflammatory action": "have an anti-inflammatory action"},
      {"smiles": "CCCCCC(=O)CC/C=C\\CCCCCCCC(=O)O", "note": "[No. 15, 13-oxo-cis-9-octadecenoic acid]", "anti-inflammatory action": "have an anti-inflammatory action"}
    ]}
  ]
}
